Assays:
[1] = molecular target: T1, recombinant human ACC1 (rhACC1) (Homo sapiens, UniProt Q13085, DEL44-44); experiment: recombinant hACC1 Transcreener assay (direct inhibition of ACC1 activity); type: biochemical; settings: Transcreener ADP detection FP assay, 50 μM ATP, 30 μM acetyl-CoA, 120 min at 25° C.
T1 construct: recombinant baculovirus containing full length human ACC1 cDNA; made in house; host or cells: SF9 insect cells (baculovirus)
How it was run: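 Full-length human ACC1 from baculovirus-infected SF9 cells, dephosphorylated with lambda phosphatase. Reaction in 50 mM HEPES pH 7.2 with 30 μM acetyl-CoA, 50 μM ATP, 10 mM KHCO3, 120 min at 25° C; ADP detected by Transcreener fluorescence polarisation.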

[2] = molecular target: T2, recombinant human ACC2 (rhACC2) (Homo sapiens, UniProt O00763, V2141I); experiment: recombinant hACC2 Transcreener assay (direct inhibition of ACC2 activity); type: biochemical; settings: Transcreener ADP detection FP assay, 50 μM ATP, 30 μM acetyl-CoA, 50 min at 25° C.
T2 construct: a full length Cytomax clone of ACC2 was purchased from Cambridge Bioscience Limited; made in house; host or cells: CHO cells (tetracycline-induced, pcDNA5 FRT TO-TOPO)
How it was run: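 Full-length human ACC2 was expressed in CHO cells and avidin-purified. ADP formation was measured by Transcreener FP in 50 mM HEPES pH 7.2 with 30 μM acetyl-CoA, 50 μM ATP, 8 mM KHCO3 and 5 mM citrate. Reactions ran 50 min at 25 °C with 1% DMSO, then 1 h with stop/detect reagent.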

T2 sequence (O00763 whole entry V2141I): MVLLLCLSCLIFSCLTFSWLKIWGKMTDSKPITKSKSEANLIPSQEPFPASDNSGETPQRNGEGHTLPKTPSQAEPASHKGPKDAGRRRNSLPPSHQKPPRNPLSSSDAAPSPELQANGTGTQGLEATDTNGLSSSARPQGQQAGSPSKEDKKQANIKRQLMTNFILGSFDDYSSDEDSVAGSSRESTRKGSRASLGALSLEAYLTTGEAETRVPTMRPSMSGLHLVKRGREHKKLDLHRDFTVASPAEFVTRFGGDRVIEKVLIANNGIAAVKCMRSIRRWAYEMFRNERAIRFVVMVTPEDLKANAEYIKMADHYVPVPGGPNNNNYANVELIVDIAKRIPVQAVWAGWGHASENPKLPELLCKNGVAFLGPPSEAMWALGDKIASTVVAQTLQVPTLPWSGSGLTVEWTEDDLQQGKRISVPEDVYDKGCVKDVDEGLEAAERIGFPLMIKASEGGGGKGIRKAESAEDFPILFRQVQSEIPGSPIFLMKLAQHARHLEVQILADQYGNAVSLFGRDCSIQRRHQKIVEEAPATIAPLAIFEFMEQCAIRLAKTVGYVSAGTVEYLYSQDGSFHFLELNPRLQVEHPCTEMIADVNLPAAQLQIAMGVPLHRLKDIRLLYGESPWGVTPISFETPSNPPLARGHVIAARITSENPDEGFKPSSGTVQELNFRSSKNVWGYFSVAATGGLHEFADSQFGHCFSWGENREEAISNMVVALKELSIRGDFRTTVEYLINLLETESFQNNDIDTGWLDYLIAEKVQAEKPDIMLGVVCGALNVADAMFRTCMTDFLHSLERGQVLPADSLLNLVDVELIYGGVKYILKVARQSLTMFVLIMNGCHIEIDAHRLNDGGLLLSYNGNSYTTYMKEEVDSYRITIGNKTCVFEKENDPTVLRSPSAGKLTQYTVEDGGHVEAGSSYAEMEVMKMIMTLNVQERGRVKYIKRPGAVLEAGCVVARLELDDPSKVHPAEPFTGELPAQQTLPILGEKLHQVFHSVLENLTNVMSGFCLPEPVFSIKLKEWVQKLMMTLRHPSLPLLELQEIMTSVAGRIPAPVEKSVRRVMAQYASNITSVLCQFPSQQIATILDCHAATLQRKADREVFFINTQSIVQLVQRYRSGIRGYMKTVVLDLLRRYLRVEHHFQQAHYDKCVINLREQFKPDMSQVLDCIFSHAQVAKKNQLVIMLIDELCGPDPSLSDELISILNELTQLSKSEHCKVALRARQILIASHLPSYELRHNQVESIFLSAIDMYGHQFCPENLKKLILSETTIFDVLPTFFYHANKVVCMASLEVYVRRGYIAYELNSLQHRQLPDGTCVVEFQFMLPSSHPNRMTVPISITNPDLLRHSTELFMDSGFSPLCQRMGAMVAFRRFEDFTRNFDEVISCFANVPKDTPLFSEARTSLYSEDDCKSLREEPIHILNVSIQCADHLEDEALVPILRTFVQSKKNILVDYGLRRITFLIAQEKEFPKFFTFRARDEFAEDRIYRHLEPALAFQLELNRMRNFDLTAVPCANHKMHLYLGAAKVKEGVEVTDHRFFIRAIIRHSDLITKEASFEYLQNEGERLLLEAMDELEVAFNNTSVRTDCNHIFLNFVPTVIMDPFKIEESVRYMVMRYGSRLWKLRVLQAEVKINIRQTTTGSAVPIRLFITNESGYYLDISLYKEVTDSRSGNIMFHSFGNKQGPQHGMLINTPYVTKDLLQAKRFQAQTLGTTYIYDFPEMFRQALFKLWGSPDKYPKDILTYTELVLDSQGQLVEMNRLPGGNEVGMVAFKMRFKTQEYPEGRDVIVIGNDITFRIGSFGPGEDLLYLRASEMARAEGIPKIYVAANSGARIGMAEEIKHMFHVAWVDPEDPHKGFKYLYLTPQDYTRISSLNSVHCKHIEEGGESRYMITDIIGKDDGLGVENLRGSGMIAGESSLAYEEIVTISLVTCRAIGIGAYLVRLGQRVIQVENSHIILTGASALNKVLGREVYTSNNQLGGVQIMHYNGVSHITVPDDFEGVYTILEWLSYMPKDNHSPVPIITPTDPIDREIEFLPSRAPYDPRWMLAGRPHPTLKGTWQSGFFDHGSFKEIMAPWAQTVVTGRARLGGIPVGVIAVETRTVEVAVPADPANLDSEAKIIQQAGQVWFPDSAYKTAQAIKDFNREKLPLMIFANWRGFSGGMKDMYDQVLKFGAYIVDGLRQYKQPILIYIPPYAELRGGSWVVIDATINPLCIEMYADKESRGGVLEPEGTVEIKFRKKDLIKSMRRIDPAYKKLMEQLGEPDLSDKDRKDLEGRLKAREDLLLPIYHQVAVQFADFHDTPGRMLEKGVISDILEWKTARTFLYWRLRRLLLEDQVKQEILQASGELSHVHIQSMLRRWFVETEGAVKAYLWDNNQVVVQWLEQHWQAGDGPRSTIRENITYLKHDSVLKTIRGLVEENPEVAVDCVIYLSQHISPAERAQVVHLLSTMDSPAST

| SMILES | IC50 [1] [nM] | IC50 [2] [nM] |
| --- | --- | --- |
| CC(C)(C)n1ncc2c1C(=O)CC1(CCN(C(=O)c3ccc4cn[nH]c4c3)CC1)C2 [Example 11A-74] | 23.7 | 16.8 |
| Cc1cc(N(C)C)ncc1C(=O)N1CCC2(CC1)CC(=O)c1c(cnn1C(C)C)C2 [Example 2A-18] | 1010 | 458 |
| CC(C)(C)n1ncc2c1C(=O)CC1(CCN(C(=O)c3cc(F)c4[nH]ncc4c3)CC1)C2 [Example 2A-44] | 106 | 30.2 |
| Cc1nc2ccc(C(=O)N3CCC4(CC3)CC(=O)c3c(cnn3C3COC3)C4)cc2[nH]1 [Example 2A-42] | 1300 | 766 |
| CC(C)n1nc(C#N)c2c1C(=O)CC1(CCN(C(=O)c3ccc4[nH]cnc4c3)CC1)C2 [Example 8A-1, 1′-(1H-benzo[d]imidazole-5-carbonyl)-1-isopropyl-7-oxo-1,4,6,7-tetrahydrospiro[indazole-5,4′-piperidine]-3-carbonitrile] | 7620 | 1660 |
| CC(C)(C)n1ncc2c1C(=O)CC1(CCN(C(=O)c3cc(F)c4nc[nH]c4c3)CC1)C2 [Example 2A-51] | 72.7 | 29.9 |
| Cc1nc2c(Cl)cc(C(=O)N3CCC4(CC3)CC(=O)c3c(cnn3C(C)C)C4)cc2[nH]1 [Example 2A-52] | 54.2 | 19.3 |
| CC(C)(C)n1ncc2c1C(=O)CC1(CCN(C(=O)c3cccc(-c4ncc[nH]4)c3)CC1)C2 [Example 11A-64] | 105 | 24.4 |
| CC(C)n1nc(C#N)c2c1C(=O)CC1(CCN(C(=O)c3ccc4[nH]ncc4c3)CC1)C2 [Example 2A-76] | 6620 | 1500 |
| CC(C)n1ncc2c1C(=O)CC1(CCN(C(=O)c3cc4cnccc4nc3N)CC1)C2 [Example 2A-38] | 297 | 99.7 |
| CC(C)(C)n1ncc2c1C(=O)CC1(CCN(C(=O)c3c[nH]c4ncccc34)CC1)C2 [Example 11A-19] | 242 | 71.6 |
| CC(C)(C)n1ncc2c1C(=O)CC1(CCN(C(=O)c3ccc4[nH]ncc4c3)CC1)C2 [Example 2A-28] | 47.8 | 17 |
| CC(C)n1ncc2c1C(=O)CC1(CCN(C(=O)c3ccc(N4CCOCC4)nc3)CC1)C2 [Example 11A-24] | 6060 | 836 |
| CC(C)n1ncc2c1C(=O)CC1(CCN(C(=O)c3ccc4cnccc4c3O)CC1)C2 [Example 2A-72] | 599 | 290 |
| CC(C)(C)n1ncc2c1C(=O)CC1(CCN(C(=O)c3cccc(-n4cccn4)c3)CC1)C2 [Example 11A-17] | 129 | 48.4 |
| CC(C)n1ncc2c1C(=O)CC1(CCN(C(=O)c3cc4cccn4cn3)CC1)C2 [Example 11A-47] | 850 | 373 |
| CC(C)(C)n1ncc2c1C(=O)CC1(CCN(C(=O)c3cnc4[nH]cnc4c3)CC1)C2 [Example 11A-39] | 69 | 81.3 |
| CC(C)(C)n1ncc2c1C(=O)CC1(CCN(C(=O)c3cc4ccccn4c3)CC1)C2 [Example 11A-36] | 194 | 75.6 |
| CC(C)n1ncc2c1C(=O)CC1(CCN(C(=O)c3cccc(-c4c[nH]cn4)c3)CC1)C2 [Example 11A-3] | 74.7 | 25.4 |
| CC(C)n1ncc2c1C(=O)C(C)(C)C1(CCN(C(=O)c3ccc4[nH]ncc4c3)CC1)C2 [Example 6A-1, 1′-(1H-indazole-5-carbonyl)-1-isopropyl-6,6-dimethyl-4,6-dihydrospiro[indazole-5,4′-piperidin]-7(1H)-one] | 1530 | 373 |
| CC(C)(C)n1ncc2c1C(=O)CC1(CCN(C(=O)c3cc4ccncc4[nH]3)CC1)C2 [Example 11A-73] | 37.4 | 37.4 |
| CC(C)(C)n1ncc2c1C(=O)CC1(CCN(C(=O)c3ccn4ccnc4c3)CC1)C2 [Example 11A-67] | 203 | 139 |
| Cc1nc2c(F)cc(C(=O)N3CCC4(CC3)CC(=O)c3c(cnn3C(C)C)C4)cc2[nH]1 [Example 2A-54] | 214 | 51.5 |
| CC(C)n1ncc2c1C(=O)CC1(CCN(C(=O)c3ccc4c(cnn4C)c3)CC1)C2 [Example 2A-11] | 261 | 33.5 |

More lines, in order of falling IC50 [1], values ahead:

| IC50 [1] [nM] | IC50 [2] [nM] | SMILES |
| --- | --- | --- |
| 9230 | 2330 | CC(C)(C)n1ncc2c1C(=O)CC1(CCN(C(=O)c3ccc(N4CCOCC4)cn3)CC1)C2 [Example 11A-57] |
| 8730 | 2530 | Cc1cc(C(=O)N2CCC3(CC2)CC(=O)c2c(cnn2C)C3)ccc1Cl [Example 2A-4] |
| 8300 | 3570 | Cc1cc(C(=O)N2CCC3(CC2)CC(=O)c2c(cnn2CC2CCCO2)C3)ccc1Cl (stereo not drawn) [Example 2A-2] |
| 4080 | 1390 | CC(C)n1ncc2c1C(=O)CC1(CCN(C(=O)c3c[nH]c4c(cnn4C)c3=O)CC1)C2 [Example 11A-66] |
| 3840 | 1270 | CC(C)(C)n1nc(C#N)c2c1C(=O)CC1(CCN(C(=O)c3ccc4[nH]ncc4c3)CC1)C2 [Example 2A-78] |
| 1500 | 745 | CC(C)(C)n1ncc2c1C(=O)CC1(CCN(C(=O)c3cn4cccc4cn3)CC1)C2 [Example 11A-45] |
| 1060 | 387 | CC(C)n1ncc2c1C(=O)CC1(CCN(C(=O)c3c[nH]c4ncccc34)CC1)C2 [Example 2A-71] |
| 917 | 391 | CC(C)n1ncc2c1C(=O)CC1(CCN(C(=O)c3cn4ccccc4n3)CC1)C2 [Example 11A-28] |
| 581 | 371 | CC(C)(C)n1ncc2c1C(=O)CC1(CCN(C(=O)c3cnc(-c4ccccn4)[nH]3)CC1)C2 [Example 11A-50] |
| 444 | 62.3 | Cc1cc(C(=O)N2CCC3(CC2)CC(=O)c2c(cnn2C(C)(C)C)C3)ccc1Cl [Example 1A-2] |
| 308 | 91.8 | CC(C)n1ncc2c1C(=O)CC1(CCN(C(=O)c3ccc4c(c3)CC(=O)N4)CC1)C2 [Example 2A-27] |
| 282 | 69.7 | CC(C)n1ncc2c1C(=O)CC1(CCN(C(=O)c3cnc4[nH]ncc4c3)CC1)C2 [Example 2A-1, 1-Isopropyl-1′-(1H-pyrazolo[3,4-b]pyridine-5-carbonyl)-4,6-dihydrospiro[indazole-5,4′-piperidin]-7(1H)-one] |
| 280 | 74.1 | CC(C)n1ncc2c1C(=O)CC1(CCN(C(=O)c3cnc4c(cnn4C)c3N)CC1)C2 [Example 2A-58] |
| 267 | 68 | Cc1cc(C(=O)N2CCC3(CC2)CC(=O)c2c(cnn2C(C)C)C3)ccc1Cl [Example 1A-1, 1-isopropyl-1′-(4-chloro-3-methylbenzoyl)-4,6-dihydrospiro[indazole-5,4′-piperidin]-7(1H)-one] |
| 213 | 60.4 | CC(C)n1ncc2c1C(=O)CC1(CCN(C(=O)c3ccc4c(c3)ncn4C)CC1)C2 [Example 11A-55] |
| 143 | 45.6 | CC(C)n1ncc2c1C(=O)CC1(CCN(C(=O)c3cc4ccccn4c3)CC1)C2 [Example 11A-43] |
| 123 | 29.6 | CC(C)n1ncc2c1C(=O)CC1(CCN(C(=O)c3cc(F)c4nc[nH]c4c3)CC1)C2 [Example 2A-36] |
| 122 | 42.9 | CC(C)n1ncc2c1C(=O)CC1(CCN(C(=O)c3ccc4ncccc4c3O)CC1)C2 [Example 2A-69] |
| 121 | 93 | CC(C)n1ncc2c1C(=O)CC1(CCN(C(=O)c3cc4cccnc4[nH]3)CC1)C2 [Example 2A-20] |
| 113 | 37.7 | Cc1nn(C(C)C)c2c1CC1(CCN(C(=O)c3ccc4[nH]ncc4c3)CC1)CC2=O [Example 2A-75] |
| 87.1 | 20.4 | CC(C)(C)n1ncc2c1C(=O)CC1(CCN(C(=O)c3cccc(-c4cc[nH]n4)c3)CC1)C2 [Example 11A-23] |
| 86.8 | 80.1 | CC(C)(C)n1ncc2c1C(=O)CC1(CCN(C(=O)c3ccc(-n4cccn4)nc3)CC1)C2 [Example 11A-59] |
| 69.5 | 22.7 | CC(C)(C)n1ncc2c1C(=O)CC1(CCN(C(=O)c3cc(Cl)c4[nH]ncc4c3)CC1)C2 [Example 2A-25] |
| 63.2 | 39.8 | Cc1nn(C(C)C)c2c1CC1(CCN(C(=O)c3ccc4[nH]cnc4c3)CC1)CC2=O [Example 7A-1, 1′-(1H-benzo[d]imidazole-5-carbonyl)-1-isopropyl-3-methyl-4,6-dihydrospiro[indazole-5,4′-piperidin]-7(1H)-one] |
| 57.4 | 22.1 | CC(C)n1ncc2c1C(=O)CC1(CCN(C(=O)c3cnc4cc[nH]c4c3)CC1)C2 [Example 2A-19] |
| 34.4 | 19.7 | CC(C)n1ncc2c1C(=O)CC1(CCN(C(=O)c3ccc4[nH]nc(C#N)c4c3)CC1)C2 [Example 11A-9] |
| 24.1 | 9.81 | CC(C)(C)n1ncc2c1C(=O)CC1(CCN(C(=O)c3ccc4[nH]c(=O)[nH]c4c3)CC1)C2 [Example 2A-29] |

Reference: patent US9139587B2, “N1-pyrazolospiroketone acetyl-CoA carboxylase inhibitors” (Pfizer Inc., priority 2009, dated 2015)
